The source of these data is patent US8293528B2, “Peptide compositions and their use in particular in the preparation of pharmaceutical compositions active against the hepatitis C virus” (priority 2002, dated 2012).

In test [1] the test system is blood cells from 3 patients infected by the hepatitis C virus of genotype 1 and having an HLA of type HLA-A2+. Particulars: ELISPOT, 48 hours, positive if more than 20 spots per well. On the procedure: The ability of blood cells from 3 patients infected by the hepatitis C virus of genotype 1 and having an HLA of type HLA-A2+ to produce gamma-interferon cytokines and interleukin-10, in response to two peptides predicted by software developed by bioMerieux (Centre d'Immunologie de Pierre Fabre) to bind to the HLA-A2 molecule was tested.
The assay of these cytokines reflects the ability of the peptides to induce immune responses to cell mediation, either of type 1 (gamma interferon), or of type 2 (interleukin-10)
After 48 hours of incubation at 37° C., a period during which the cells specific to the peptides will locally produce cytokines which will bind to the specific antibodies, anti-gamma interferon or anti-interleukin-10 antibodies, alkaline phosphatase coupled to avidine and the alkaline phosphatase substrate (NBT/BCIP) were added.
The violet-blue spots, which represent each gamma-interferon or interleukin-10-producing cell were counted, using Zeiss's ELISPOT automated reader (KS Elispot) and only considered positive when the number of spots per well was greater than 20.

The test system of the next test is HLA-A2.1-transgenic mice. Nature of the test: CTL test after immunization with peptides/compositions/epitopes. Format: in vivo. The following applies: FIG. 10; 18 nmoles of D peptide versus 60 nmoles of ALY epitope, ALY epitope as target. Here is the method:
In order to do this, 2 sub-cutaneous injections were administered into the base of the tail of each mouse, with an interval of 15 days, of a mixture containing 18 nmoles of peptide of the invention and 18 nmoles of the HBV core helper peptide in incomplete Freund's adjuvant (IFA, Brinster et al., Hepatology 2001) or containing 60 nmoles of epitope of the invention and 60 nmoles of the helper peptide in IFA.
The control mice received only the helper peptide in IFA.
Fifteen days after the 2nd injection, the cell response was analyzed by isolating the spleen cells (splenocytes) of mice and a CTL test and an ELISPOT test were carried out as follows:
For the CTL test, these splenocytes were cultured in 24-well plates in the presence of 5 μM of the peptide or epitope of interest and 10 U of recombinant murine interleukin-2 (Brinster et al., Hepatology 2001) per ml in alpha minimum essential medium (αMEM) for 5 days. […] The specific cytotoxic activity of the effective cells was determined by measuring, after 4 hours of incubation with the target cells, the Cr^51 released following the lysis of the target cells using a γ-Cobra II (Packard, Rungis, France) counting device. The spontaneous and maximum release from wells containing either the medium alone, or the lysis buffer (HCl 1N) were determined. […]

The subject of test [2] is Mice transgenic for the molecule HLA.A2.1. Nature of the test: ELISPOT after immunization of transgenic mice with predicted epitopes. Format: in vivo. Particulars: three individual mice; two injections of epitope 60 μM + T-helper peptide in IFA; two weeks after last immunization. On the procedure: Mice transgenic for the molecule HLA.A2.1 and devoid of murine class 1 molecules (Pascolo S., et al., 1997, J. Exp Med., 185: 2043-2051) were immunized with the FLL and ILA epitopes predicted as being class I epitopes restricted by the molecule HLA.A2.1.
In order to do this, the mice were immunized in the base of their tails with a peptide mixture containing one of the above epitopes (60 μM) and the T-helper peptide (Lone, Y. C. et al., (1998), J. Immunother. 21:283-294) (60 μM) emulsified in incomplete Freund's adjuvant (Sigma St Louis, Mo.). The mice received two injections with an interval of two weeks and the immune responses were analyzed two weeks after the last immunization as indicated in Example 1 (Elispot).

Values joined by “and” are separate entries in the source; they are usually repeats but may differ in a detail not shown here. Equal entries are not always repeated.

Turning to LLGCIITSL, in test [1], the “production of gamma interferon” value is “significant production of gamma interferon in 2 of the 3 patients” and the “production of interleukin-10” value was “significant production”.

On to FLATCVNGV, for which, in test [1], the “production of gamma interferon” value is on record as “little if any production” and the “production of interleukin-10” value is recorded as “little if any production”.

Consider “D peptide: D peptide of sequence SEQ ID NO: 176, in NS5b between positions 2573 and 2601 of the viral polyprotein”, for which, in the test on HLA-A2.1-transgenic mice, the lysis effectiveness entry was “identical lysis effectiveness”.

In the case of ILAGYAGAGV, the “Number of spots/10^6 cells (gamma-interferon-producing cells)” value in test [2] is 5 spots/10^6 cells and 2 spots/10^6 cells and 0 spots/10^6 cells.
